Like-named read-outs stand apart in the source and are kept apart here.
Tests used:
KB-VIN10 cells = assay: Cell growth inhibition assay on multidrug resistant KB-VIN10 cells; type: cell-based; conditions: Homo sapiens
Procedure: (§1) Cell in logarithmic phase were cultured at a density of 5000 cells/mL/well in a 24-well plate. KB-VIN10 cells were cultured in a medium free of test compound for 3 days prior to use. The cells were treated with the test compound at various concentrations for 72 h. The effect of the test compound on cell growth was evaluated using the methylene blue dye assay. […] KB-CPT100 and KB-CPT300 cells were generated by camptothecin-driven selection. […] (See Liou, J. P. et al J. Med. Chem. 2004, 47, 4247-4257 and Kuo, C. C. et al. Cancer Res. 2004, 64, 4621-4628.) Anticancer activities of the aryl substituted sulfonamide compounds synthesized in the above examples were evaluated by testing their inhibitory effects on these drug-resistant cell lines. Compound 24 was tested in this assay.

[1] = tested on: stomach carcinoma MKN45 cells; assay: Cell growth inhibition assay (methylene blue dye), MKN45 cells; type: cell-based; conditions: Homo sapiens, MKN-45, 72 h, read-out: Cell type (IC50 ± SD, nM) MKN45 (stomach)
Procedure: (§2) Anticancer activities of the aryl substituted sulfonamide compounds synthesized in the above examples were evaluated by testing their inhibitory effects on mammalian cancer cell growth.
(§3) Human oral epidermoid carcinoma KB cells, non small cell lung carcinoma H460 cells, colorectal carcinoma HT29 cells, and stomach carcinoma MKN45 cells were maintained in RPMI-1640 medium supplied with 5% fetal bovine serum. The cells were treated with the test compound at various concentrations for 72 h.

[2] = tested on: Human oral epidermoid carcinoma KB cells; assay: Cell growth inhibition assay (methylene blue dye), KB cells; type: cell-based
Procedure: as §2, §3

[3] = tested on: non small cell lung carcinoma H460 cells; assay: Cell growth inhibition assay (methylene blue dye), H460 cells; type: cell-based; conditions: Homo sapiens, NCI-H460, 72 h, read-out: Cell type (IC50 ± SD, nM) H460 (lung)
Procedure: as §2, §3

KB-L30 cells = assay: Cell growth inhibition assay on drug-resistant KB-L30 cells; type: cell-based; conditions: Homo sapiens; KB-L30, BPR0L075 resistance
Procedure: as §1, with “dye assay. […] Compounds 16 and 24 were tested in this” for “dye”

[4] = tested on: Human umbilical vein endothelial cells (HUVECs); assay: Cellular network (tube) formation inhibition assay; type: cell-based
Procedure: (i) Cellular Network Formation Inhibition Assay
Each well of a 96-well plate was coated with an extracellular matrix containing collagen for 1 hr to allow the gel to solidify. Human umbilical vein endothelial cells (HUVECs) suspension was prepared at a concentration of 1×10^5 cells/mL in M199 medium supplemented with endothelial cell growth supplements with 20% FBS. Then, 100 μl of the cell suspension was added to each gel-coated well of the plate. Cells were incubated with or without a test compound for 18 hrs at 37° C. Without the test compound, a cellular network structure was fully developed after 12-18 hrs of incubation. The number of tubes formed was counted using light microscopy at 200× magnification.

KB-CPT300 cells = assay: Cell growth inhibition assay on drug-resistant KB-CPT300 cells; type: cell-based; conditions: Homo sapiens; KB-CPT300, Camptothecin resistance
Procedure: as §1, with “dye assay. […] Compounds 16 and 24 were tested in this” for “dye”

KB-CPT100 cells = assay: Cell growth inhibition assay on drug-resistant KB-CPT100 cells; type: cell-based; conditions: Homo sapiens, KBCPT100; KB-CPT100, Camptothecin resistance
Procedure: as §1, with “dye assay. […] Compounds 16 and 24 were tested in this” for “dye”

[5] = tested on: non-small-cell lung cancer A549 cells; assay: Cell growth inhibition assay, A549 cells; type: cell-based; conditions: Homo sapiens
Procedure: (§4) Human oral epidermoid carcinoma KB cells, non small cell lung carcinoma H460 cells, colorectal carcinoma HT29 cells, and stomach carcinoma MKN45 cells were maintained in RPMI-1640 medium supplied with 5% fetal bovine serum. The cells were treated with the test compound at various concentrations for 72 h. The effect of the test compound on cell growth was evaluated using a methylene blue dye assay similar to that described in Baguley et al., Anal Biochem, 1984, 139: 272-277. […] Compounds 16, 17, and 24 were tested on these three cell lines using methylene blue dye assay. ABT-751 was used as positive control (which was synthesized with the method described in Yoshino et al., J. Med. Chem. 1992, 35, 2496-2497; descriptions of ABT-751 can also be found in Koyanagi et al., Cancer Res. 1994, 54, 1702-1706; Yee et al., Cancer Res. 2005, 11, 6615-6624; and Mauer, et al., J. Thorac. Oncol. 2008, 3, 613-636).
(§5) Further, Compound 24 was tested on non-small-cell lung cancer A549 and H1299 cells, colorectal carcinoma HT29, and normal human umbilical vein endothelial cells (HUVECs).

KB-7D cells = assay: Cell growth inhibition assay on drug-resistant KB-7D cells; type: cell-based; conditions: Homo sapiens, KB7D, Etoposide resistance
Procedure: as §1, with “dye assay. […] Compounds 16 and 24 were tested in this” for “dye”

[6] = tested on: drug-resistant cell lines (KB-VIN10, KB-TAX50, KB-7D, KB-CPT100, KB-CPT300, KB-L30); assay: Growth inhibition on the drug-resistant KB cell lines (summary over the lines); type: cell-based; conditions: Homo sapiens, summary of Table 3, read-out: IC50 values on the drug-resistant cell lines (range over lines)
Procedure: as §1, with “dye assay. […] Compounds 16 and 24 were tested in this” for “dye”

[7] = tested on: CD31-positive cells in tumor tissue (microvessel density); assay: Anti-vascular activity, CD31 immunofluorescence staining in tumor tissues; type: in vivo; parameters: dose or concentration left out as unconfirmed; conditions: tumor tissue from mice
Procedure: Anti-vascular activities of the aryl substituted sulfonamide compounds were evaluated by immunofluorescence staining in tumor tissues.
Rat anti-mouse CD31 antibodies were purchased from BD Biosciences. Tumor tissue samples were harvested from mice in both the control and test compound-treated groups. Frozen sections were fixed with acetone and chloroform. To block nonspecific proteins, each sample was incubated in 4.5% fish gelatin (BB International Co.) for 20 min. Expression of CD31 was detected in blood vessels using rat anti-mouse CD31 as the primary antibody and TexasRed (Jackson) labeled-goat anti-rat IgG antibody as the secondary antibody. The mean microvessel density (MVD) was determined by first counting and then averaging the number of CD31-positive cells in five random high power microscopic fields from different tumor samples.

KB-TAX50 cells = assay: Cell growth inhibition assay on drug-resistant KB-TAX50 cells; type: cell-based; conditions: Homo sapiens; KB-TAX50, Paclitaxel resistance
Procedure: as §1, with “dye assay. […] Compounds 16 and 24 were tested in this” for “dye”

VEGF165 = assay: VEGF production inhibition assay (ELISA); type: cell-based; conditions: Homo sapiens, medium of the HUVEC network assay
Procedure: (ii) VEGF Production Inhibition Assay
The medium of assay (i) above was collected. VEGF165 levels were measure by ELISA. In brief, a monoclonal antibody specific for VEGF was pre-coated onto a microplate. A control cell culture medium and the medium of assay (i) were added into the wells and any VEGF present was bound to the wells by the immobilized antibody. After washing away any unbound substances, an enzyme-linked polyclonal antibody specific for VEGF was added to the wells. Following a wash to remove any unbound antibody-enzyme reagent, a substrate solution was added to the wells and color developed in proportion to the amount of VEGF bound in the initial step. The color development was stopped and the intensity of the color was measured.

[8] = tested on: normal human umbilical vein endothelial cells (HUVECs); assay: Cell growth inhibition assay, normal HUVECs; type: cell-based; conditions: HUVEC
Procedure: as §4, §5

[9] = tested on: colorectal carcinoma HT29 cells; assay: Cell growth inhibition assay, HT29 cells; type: cell-based; conditions: Homo sapiens, HT-29
Procedure: as §4, §5

[10] = tested on: non-small-cell lung cancer H1299 cells; assay: Cell growth inhibition assay, H1299 cells; type: cell-based; conditions: Homo sapiens, NCI-H1299
Procedure: as §4, §5

[11] = KB-VIN10 (P-gp170/MDR overexpression), 72 h, methylene blue, read-out: IC50, growth inhibition of KB-VIN10 cells
[12] = KB cells, 72 h, methylene blue dye assay, read-out: Cell type (IC50 ± SD, nM) KB (oral)
[13] = KB cells, bands, read-out: IC50, inhibiting proliferation of KB cells (band)

Compound | IC50 (KB-VIN10 cells; [11]) | IC50 [1] | IC50 [2, 12] | IC50 [3] | IC50 [2, 13] | melting point | other results
COc1ccc(S(=O)(=O)Nc2cccnc2Nc2ccc(O)cc2)cc1 [ABT-751, reference compound] | 0.385 µM | 166 ± 8 nM | 251 ± 65 nM | 218 ± 4 nM | – | – | –
COc1ccc(S(=O)(=O)N2CCc3cccc(-c4ccncc4)c32)cc1 [Compound 24, 1-(4-methoxy-benzenesulfonyl)-7-pyridin-4-yl-2,3-dihydro-1H-indole] | 0.106 µM | 69.5 ± 7.6 nM | 96 ± 14.1 nM | 101 ± 8 nM | 1 to 99 nM | 195.9 to 196.8 °C | IC50 (KB-L30 cells): 0.237 ± 0.0266 µM; IC50 (KB-VIN10 cells; KB-VIN10, Vincristine resistance, read-out: Growth Inhibition (IC50)): 0.106 ± 0.018 µM; IC50 ([4]; Homo sapiens, HUVEC, 18 hrs, unit inferred): 0.5 µM; tube formation inhibition ([4]; at 1.5 (unit not given)): completely inhibited tube formation; IC50 (KB-CPT300 cells): 0.093 ± 0.0157 µM; IC50 (KB-CPT100 cells): 0.095 ± 0.0121 µM; IC50 [5]: 0.15 ± 0.0085 µM; IC50 (KB-7D cells): 0.257 ± 0.0266 µM; IC50 [6]: 0.09 to 0.25 µM; decrease of vascular area compared to the blank control [7]: five-fold; IC50 ([2]; KB (Parental), Table 3, read-out: Growth Inhibition (IC50)): 96 ± 14.1 nM; IC50 (KB-TAX50 cells): 0.188 ± 0.0253 µM; inhibition at 0.5 µM (VEGF165): > 50%; IC50 [8]: 0.51 ± 0.0222 µM; IC50 [9]: 0.201 ± 0.0139 µM; IC50 [10]: 0.132 ± 0.0137 µM

More lines, main results first:

IC50 (KB-VIN10 cells; [11]) | IC50 [1] | IC50 [2, 12] | IC50 [3] | IC50 [2, 13] | melting point | Compound | other results
– | 17.2 ± 8.6 nM | 31.1 ± 5.4 nM | 29.5 ± 14.8 nM | 1 to 99 nM | 157.2 to 158.9 °C | COc1ccc(S(=O)(=O)N2CCc3cccc(-c4ccc(C#N)cc4)c32)cc1 [Compound 17, 4-[1-(4-methoxy-benzenesulfonyl)-2,3-dihydro-1H-indol-7-yl]-benzonitrile] | –
– | – | – | – | – | 165 to 166 °C | COc1ccc(S(=O)(=O)N2CCc3cccc(-c4ccc(CN(C)C)cc4)c32)cc1 [Compound 39, {4-[1-(4-methoxy-benzenesulfonyl)-2,3-dihydro-1H-indol-7-yl]-benzyl}-dimethyl-amine] | IC50 ([2]; KB cells, bound stated, read-out: IC50, inhibiting proliferation of KB cells (bound)): ≥ 4000 nM
– | – | – | – | 100 to 700 nM | 130.3 to 132.1 °C | COc1ccc(S(=O)(=O)N2CCc3cccc(-c4ccc(C(=O)O)cc4)c32)cc1 [Compound 40, 4-[1-(4-methoxy-benzenesulfonyl)-2,3-dihydro-1H-indol-7-yl]-benzoic acid] | –

From patent publication US8119683B2, “Aryl substituted sulfonamide compounds and their use as anticancer agents” (Taipei Medical University, priority 2009, dated 2012)
